Reference: ChEMBL document CHEMBL1201862, “PubChem BioAssay data set” (2004)
Active and inactive are the calls of the source.

Legend:
[1] = tested on: HeLa; assay: HeLa cell cytotoxicity, dose response, cytotoxicity control for MITF activator project, CellTiter-Glo luminescence, cherry-pick samples (AID 540259); assay type: functional, cell-based; conditions: Homo sapiens
[2] = molecular target: Hexokinase-1 (Homo sapiens, UniProt P19367); assay: HK1 enzyme inhibition by HKDC1 hits, SAR follow-up, selectivity assay for HKDC1 inhibitor project, biochemical, set 2, resazurin fluorescence coupled readout (AID 588356); assay type: functional
[3] = molecular target: T1, Hexokinase HKDC1 (Homo sapiens, UniProt Q2TB90); assay: HKDC1 hexokinase inhibitors, SAR follow-up, biochemical, set 2 (AID 588355); assay type: functional
T1 sequence (Q2TB90 whole entry): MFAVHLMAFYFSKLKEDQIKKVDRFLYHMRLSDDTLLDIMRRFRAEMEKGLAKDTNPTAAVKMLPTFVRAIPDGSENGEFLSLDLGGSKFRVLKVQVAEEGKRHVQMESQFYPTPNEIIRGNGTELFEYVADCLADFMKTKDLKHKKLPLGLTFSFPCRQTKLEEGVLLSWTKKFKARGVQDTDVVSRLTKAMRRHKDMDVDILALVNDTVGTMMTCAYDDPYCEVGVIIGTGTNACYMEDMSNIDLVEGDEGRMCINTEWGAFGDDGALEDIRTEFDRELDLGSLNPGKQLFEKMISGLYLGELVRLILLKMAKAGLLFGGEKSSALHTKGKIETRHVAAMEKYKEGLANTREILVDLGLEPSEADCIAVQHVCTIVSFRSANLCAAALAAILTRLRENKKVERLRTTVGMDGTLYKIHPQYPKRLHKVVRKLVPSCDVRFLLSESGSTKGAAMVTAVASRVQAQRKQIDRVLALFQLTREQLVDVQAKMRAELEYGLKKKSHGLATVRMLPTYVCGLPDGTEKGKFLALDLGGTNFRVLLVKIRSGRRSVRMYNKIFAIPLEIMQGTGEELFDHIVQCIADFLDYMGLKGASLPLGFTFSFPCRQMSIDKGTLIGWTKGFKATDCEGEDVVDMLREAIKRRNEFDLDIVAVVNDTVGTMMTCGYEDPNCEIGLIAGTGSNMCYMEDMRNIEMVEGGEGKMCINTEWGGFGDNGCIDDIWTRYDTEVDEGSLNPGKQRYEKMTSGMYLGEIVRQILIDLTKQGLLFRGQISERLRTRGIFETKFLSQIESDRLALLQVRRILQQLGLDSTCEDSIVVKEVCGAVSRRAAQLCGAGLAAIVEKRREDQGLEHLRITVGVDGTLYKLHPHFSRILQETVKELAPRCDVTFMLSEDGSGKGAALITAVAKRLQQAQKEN

[4] = molecular target: SUMO E1/E2 (Homo sapiens, UniProt P63279+Q9UBE0+Q9UBT2); assay: SAR analysis of SUMOylation using HTRF in an in-Vitro dose response assay. [Related pubchem assays (depositor defined):AID2006, AID2011, AID2018, AID2069, AID2658]; assay type: functional
[5] = molecular target: 72 kDa type IV collagenase (Homo sapiens, UniProt P08253); assay: Dose Response validation of uHTS RPN11 inhibitor hits using a MMP-2 Fluorescence assay.; assay type: functional
[6] = molecular target: 26S proteasome non-ATPase regulatory subunit 14 (Homo sapiens, UniProt O00487); assay: inhibition of proteasome subunit RPN11 – biochemical, fluorescence polarization, uHTS hits, confirmation (AID 602368); assay type: functional
[7] = molecular target: Prothrombin (Bos taurus, UniProt P00735); assay: thrombin inhibition, dose response, biochemical, fluorescence polarization, uHTS hits (AID 602369); assay type: functional
[8] = molecular target: Dual specificity tyrosine-phosphorylation-regulated kinase 1A (Rattus norvegicus, UniProt Q63470); assay type: biochemical, Homo sapiens
[9] = cytotoxicity toward NIH3T3 fibroblasts, dose response, counter-screen, cell-based, ATP luminescence, mouse fibroblasts (AID 2010); assay type: functional;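 also: cells exposed to compound for about 90 hours before reading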
[10] = inhibitors of intracellular T. cruzi replication, confirmation, NIH3T3 host cells, beta-gal luminescence (AID 2044); assay type: functional, cell-based;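 also: intracellular parasites grown in NIH/3T3 mouse fibroblasts as host cells; luminescent beta-galactosidase reporter signal from transgenic T. cruzi replicating inside host cells; inhibitors lower the luminescence signal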
[11] = tested on: Vero; assay: cells; assay type: functional; conditions: Chlorocebus sabaeus
[12] = growth suppression of beta-catenin-knockout colon cells, dose response, cell-based, HCT116, human colon tumor (AID 1045); assay type: functional;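 also: HCT116 colon tumor cells with beta catenin knocked out; cells exposed to compound for 60 hours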
[13] = growth suppression of PTEN-null colon cells, dose response, cell-based, HCT116 PTEN knockout (AID 1047); assay type: functional;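 also: HCT116 colon tumor cells with PTEN knocked out; cells exposed to compound for 60 hours before readout; potency for loss of cell viability measured by luminescence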
[14] = tested on: Escherichia coli; assay: microbe, parasite or virus in culture
[15] = C. albicans growth with fluconazole, confirmation, fluorescence, retest (AID 2467); assay type: functional, cell-based
[16] = tested on: Streptococcus sp. 'group A'; assay: growth inhibition of control SK(-) GAS strain, dose response, counter-screen for streptokinase expression inhibitor project, luminescence, kanamycin, BacTiterGlo, confirmation (AID 1900); assay type: functional, organism-based
[17] = NIH-3T3 fibroblast cytotoxicity, dose response, cytotoxicity control, cell-based, fluorescence, Alamar Blue, secondary assay (AID 2327); assay type: functional;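 also: NIH-3T3 mouse fibroblasts cultured with fluconazole at 8 µg/mL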
[18] = molecular target: T2, Streptokinase A (Streptococcus pyogenes serotype M1, UniProt P10520); assay: S. pyogenes streptokinase expression inhibitors, potency, dose response, plasminogen activation absorbance, OD405 (AID 1914); assay type: functional, Streptococcus pyogenes M1 GAS;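 also: secreted streptokinase activity via plasminogen activation per viability signal from cell pellet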
T2 sequence (P10520 whole entry): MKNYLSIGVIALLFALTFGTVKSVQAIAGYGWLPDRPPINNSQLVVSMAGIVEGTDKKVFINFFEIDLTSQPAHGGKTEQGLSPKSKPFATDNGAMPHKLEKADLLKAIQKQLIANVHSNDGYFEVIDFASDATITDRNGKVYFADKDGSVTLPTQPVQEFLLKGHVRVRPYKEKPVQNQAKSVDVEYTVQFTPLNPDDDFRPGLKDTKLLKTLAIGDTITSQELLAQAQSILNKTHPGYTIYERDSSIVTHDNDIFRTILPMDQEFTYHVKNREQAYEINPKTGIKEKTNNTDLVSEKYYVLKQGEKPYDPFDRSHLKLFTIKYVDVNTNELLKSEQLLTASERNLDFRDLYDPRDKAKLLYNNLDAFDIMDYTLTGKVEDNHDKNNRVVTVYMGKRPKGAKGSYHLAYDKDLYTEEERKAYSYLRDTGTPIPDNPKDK

[19] = tested on: Streptococcus; assay: Group A Streptococcus viability loss, dose response, counter-screen for streptokinase expression inhibitor project, luminescence, BacTiterGlo (AID 1915); assay type: functional, organism-based;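 also: potency for reduction of bacterial viability or growth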
[20] = molecular target: T3, Sentrin-specific protease 8 (Homo sapiens, UniProt Q96LD8); assay type: functional;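 also: luminescence read-out of SENP8 inhibition, dose-response confirmation following an ultra-high-throughput screen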
T3 sequence (Q96LD8 whole entry): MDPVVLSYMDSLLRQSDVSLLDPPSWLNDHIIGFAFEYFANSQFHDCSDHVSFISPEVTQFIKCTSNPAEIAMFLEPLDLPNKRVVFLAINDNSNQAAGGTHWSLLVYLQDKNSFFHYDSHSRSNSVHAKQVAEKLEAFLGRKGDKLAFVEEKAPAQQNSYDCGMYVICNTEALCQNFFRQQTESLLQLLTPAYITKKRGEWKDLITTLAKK

[21] = molecular target: T4, Sentrin-specific protease 7 (Homo sapiens, UniProt Q9BQF6); assay type: functional;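 also: Luminescence-based dose-response confirmation of ultra-high-throughput screening hits, measuring inhibition of SENP7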
T4 sequence (Q9BQF6 whole entry): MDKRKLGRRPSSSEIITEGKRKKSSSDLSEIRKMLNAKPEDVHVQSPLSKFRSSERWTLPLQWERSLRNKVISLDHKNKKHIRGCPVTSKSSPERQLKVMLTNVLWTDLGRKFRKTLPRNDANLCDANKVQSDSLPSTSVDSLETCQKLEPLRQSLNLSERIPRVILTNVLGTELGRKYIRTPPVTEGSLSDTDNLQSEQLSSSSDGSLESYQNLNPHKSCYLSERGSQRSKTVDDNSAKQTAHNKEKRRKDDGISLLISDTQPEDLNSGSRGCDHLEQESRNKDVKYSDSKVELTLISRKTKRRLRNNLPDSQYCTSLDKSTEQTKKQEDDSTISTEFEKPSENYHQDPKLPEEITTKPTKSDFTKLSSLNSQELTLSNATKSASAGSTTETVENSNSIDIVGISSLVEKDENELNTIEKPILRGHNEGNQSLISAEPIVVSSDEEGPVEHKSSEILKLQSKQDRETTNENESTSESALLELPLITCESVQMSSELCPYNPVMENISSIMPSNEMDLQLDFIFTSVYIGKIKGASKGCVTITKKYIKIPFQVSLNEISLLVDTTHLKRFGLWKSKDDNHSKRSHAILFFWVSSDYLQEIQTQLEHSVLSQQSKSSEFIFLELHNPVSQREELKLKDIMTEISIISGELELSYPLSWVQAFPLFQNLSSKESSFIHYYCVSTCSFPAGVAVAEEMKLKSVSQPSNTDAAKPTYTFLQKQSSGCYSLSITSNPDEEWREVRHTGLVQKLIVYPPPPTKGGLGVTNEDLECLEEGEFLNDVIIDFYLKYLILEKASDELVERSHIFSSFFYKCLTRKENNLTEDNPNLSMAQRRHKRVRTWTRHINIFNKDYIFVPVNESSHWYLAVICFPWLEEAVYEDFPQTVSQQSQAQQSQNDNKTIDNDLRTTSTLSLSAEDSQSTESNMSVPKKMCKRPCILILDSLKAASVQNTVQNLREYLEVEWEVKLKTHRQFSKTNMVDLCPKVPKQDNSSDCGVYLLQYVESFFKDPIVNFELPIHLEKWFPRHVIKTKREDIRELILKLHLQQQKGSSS

[22] = molecular target: T5, Caspase-3 (Homo sapiens, UniProt P42574); assay type: functional;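 also: Dose-response selectivity test against caspase-3 for candidate inhibitors of sentrin-specific proteases (SENPs)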
T5 sequence (P42574 whole entry): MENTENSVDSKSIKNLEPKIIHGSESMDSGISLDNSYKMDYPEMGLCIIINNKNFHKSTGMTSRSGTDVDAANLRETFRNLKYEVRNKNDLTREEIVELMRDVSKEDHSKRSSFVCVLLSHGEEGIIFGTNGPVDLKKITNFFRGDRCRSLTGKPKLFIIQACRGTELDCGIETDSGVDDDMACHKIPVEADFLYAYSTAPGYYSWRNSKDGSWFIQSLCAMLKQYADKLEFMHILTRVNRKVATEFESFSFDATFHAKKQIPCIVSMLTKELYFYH

[23] = molecular target: T6, Sentrin-specific protease 6 (Homo sapiens, UniProt Q9GZR1); assay type: functional;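 also: Luminescence-based dose-response confirmatory assay of SENP6 inhibition, following up an ultra-high-throughput screen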
T6 sequence (Q9GZR1 whole entry): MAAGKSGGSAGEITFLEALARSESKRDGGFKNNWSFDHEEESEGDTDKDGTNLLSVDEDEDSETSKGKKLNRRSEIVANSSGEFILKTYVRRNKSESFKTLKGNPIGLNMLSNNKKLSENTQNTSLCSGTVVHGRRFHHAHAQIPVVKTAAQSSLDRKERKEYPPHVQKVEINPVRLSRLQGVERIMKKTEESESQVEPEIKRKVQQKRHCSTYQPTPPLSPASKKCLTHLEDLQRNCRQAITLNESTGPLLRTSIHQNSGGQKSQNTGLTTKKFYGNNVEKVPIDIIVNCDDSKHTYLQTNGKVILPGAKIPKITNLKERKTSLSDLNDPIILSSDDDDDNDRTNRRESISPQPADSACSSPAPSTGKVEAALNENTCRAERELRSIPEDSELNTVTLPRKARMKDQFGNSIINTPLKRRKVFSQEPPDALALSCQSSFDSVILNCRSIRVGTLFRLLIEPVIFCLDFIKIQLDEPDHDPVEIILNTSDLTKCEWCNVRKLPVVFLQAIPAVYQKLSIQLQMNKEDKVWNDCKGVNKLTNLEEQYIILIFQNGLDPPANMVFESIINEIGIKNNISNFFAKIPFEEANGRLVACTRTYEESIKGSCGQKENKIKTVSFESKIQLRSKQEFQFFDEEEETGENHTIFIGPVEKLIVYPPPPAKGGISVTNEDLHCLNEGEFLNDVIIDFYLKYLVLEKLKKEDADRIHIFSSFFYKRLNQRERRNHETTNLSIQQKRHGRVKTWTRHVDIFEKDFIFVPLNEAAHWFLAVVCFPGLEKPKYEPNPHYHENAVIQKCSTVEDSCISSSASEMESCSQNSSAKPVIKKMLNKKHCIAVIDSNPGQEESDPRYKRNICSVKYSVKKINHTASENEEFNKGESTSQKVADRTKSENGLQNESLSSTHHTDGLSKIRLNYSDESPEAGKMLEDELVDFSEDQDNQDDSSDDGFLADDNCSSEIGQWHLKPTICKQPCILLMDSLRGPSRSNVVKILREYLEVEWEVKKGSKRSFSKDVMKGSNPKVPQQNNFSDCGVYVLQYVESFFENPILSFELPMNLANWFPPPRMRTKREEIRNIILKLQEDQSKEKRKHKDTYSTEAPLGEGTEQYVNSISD

Sequence of Hexokinase-1 (P19367 whole entry): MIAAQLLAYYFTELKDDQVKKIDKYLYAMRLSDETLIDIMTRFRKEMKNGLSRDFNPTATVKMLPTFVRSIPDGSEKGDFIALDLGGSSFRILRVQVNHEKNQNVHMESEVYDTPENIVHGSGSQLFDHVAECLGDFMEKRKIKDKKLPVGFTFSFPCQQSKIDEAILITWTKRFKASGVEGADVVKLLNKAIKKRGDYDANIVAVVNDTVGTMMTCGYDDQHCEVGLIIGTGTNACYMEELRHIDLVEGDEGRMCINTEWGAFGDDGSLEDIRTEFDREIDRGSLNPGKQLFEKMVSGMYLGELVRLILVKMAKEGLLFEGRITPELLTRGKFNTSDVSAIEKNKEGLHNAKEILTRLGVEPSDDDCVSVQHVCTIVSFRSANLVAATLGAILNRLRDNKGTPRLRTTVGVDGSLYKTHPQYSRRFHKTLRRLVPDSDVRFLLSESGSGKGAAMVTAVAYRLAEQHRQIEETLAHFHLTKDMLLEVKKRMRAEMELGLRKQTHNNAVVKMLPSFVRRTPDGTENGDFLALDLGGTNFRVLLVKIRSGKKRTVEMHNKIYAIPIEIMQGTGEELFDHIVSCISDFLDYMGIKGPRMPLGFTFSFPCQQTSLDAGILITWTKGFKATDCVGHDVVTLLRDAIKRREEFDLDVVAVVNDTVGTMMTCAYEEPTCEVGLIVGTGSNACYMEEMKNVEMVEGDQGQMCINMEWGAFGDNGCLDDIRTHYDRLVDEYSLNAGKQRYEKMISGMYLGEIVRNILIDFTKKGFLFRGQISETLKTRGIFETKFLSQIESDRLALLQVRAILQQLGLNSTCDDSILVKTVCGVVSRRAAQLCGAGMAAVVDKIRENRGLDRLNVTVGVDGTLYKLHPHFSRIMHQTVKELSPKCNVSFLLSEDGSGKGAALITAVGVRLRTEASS
Sequence of 72 kDa type IV collagenase (P08253 whole entry): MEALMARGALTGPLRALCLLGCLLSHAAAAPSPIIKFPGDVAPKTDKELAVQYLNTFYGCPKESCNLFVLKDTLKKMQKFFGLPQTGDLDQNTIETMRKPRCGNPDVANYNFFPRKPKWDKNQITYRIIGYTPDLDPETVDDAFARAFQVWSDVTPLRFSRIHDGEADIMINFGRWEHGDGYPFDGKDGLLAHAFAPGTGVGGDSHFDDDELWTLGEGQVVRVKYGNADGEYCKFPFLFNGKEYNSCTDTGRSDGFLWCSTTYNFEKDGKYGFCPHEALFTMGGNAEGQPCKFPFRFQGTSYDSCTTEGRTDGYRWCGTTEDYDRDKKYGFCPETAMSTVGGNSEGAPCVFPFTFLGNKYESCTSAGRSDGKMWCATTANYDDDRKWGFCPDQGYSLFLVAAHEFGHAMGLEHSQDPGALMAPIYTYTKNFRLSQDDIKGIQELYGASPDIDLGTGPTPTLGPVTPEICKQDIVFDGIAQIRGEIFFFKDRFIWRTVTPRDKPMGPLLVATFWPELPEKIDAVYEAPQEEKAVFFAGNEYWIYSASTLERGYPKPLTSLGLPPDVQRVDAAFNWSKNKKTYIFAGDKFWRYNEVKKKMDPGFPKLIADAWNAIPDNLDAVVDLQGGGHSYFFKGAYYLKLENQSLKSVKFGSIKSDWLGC
Sequence of 26S proteasome non-ATPase regulatory subunit 14 (O00487 whole entry): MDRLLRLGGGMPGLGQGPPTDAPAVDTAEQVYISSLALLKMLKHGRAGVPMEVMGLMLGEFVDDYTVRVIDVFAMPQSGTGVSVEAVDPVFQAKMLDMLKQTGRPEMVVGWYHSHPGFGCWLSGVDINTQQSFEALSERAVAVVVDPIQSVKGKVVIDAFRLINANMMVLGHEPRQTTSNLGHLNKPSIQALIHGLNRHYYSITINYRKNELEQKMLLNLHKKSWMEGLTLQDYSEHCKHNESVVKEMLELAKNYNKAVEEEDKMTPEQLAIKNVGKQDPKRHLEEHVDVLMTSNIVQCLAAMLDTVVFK
Sequence of SUMO E1/E2 (Q9UBE0 whole entry): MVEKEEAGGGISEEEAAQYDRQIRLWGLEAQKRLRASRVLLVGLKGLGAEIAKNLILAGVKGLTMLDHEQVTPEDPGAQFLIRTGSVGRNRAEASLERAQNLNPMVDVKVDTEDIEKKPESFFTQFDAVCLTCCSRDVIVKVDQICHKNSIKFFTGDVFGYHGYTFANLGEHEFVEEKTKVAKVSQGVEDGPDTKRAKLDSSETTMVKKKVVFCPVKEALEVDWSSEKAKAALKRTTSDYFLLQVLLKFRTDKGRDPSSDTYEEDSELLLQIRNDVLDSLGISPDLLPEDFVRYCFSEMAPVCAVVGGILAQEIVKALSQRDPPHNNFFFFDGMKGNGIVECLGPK
Sequence of SUMO E1/E2 (Q9UBT2 whole entry): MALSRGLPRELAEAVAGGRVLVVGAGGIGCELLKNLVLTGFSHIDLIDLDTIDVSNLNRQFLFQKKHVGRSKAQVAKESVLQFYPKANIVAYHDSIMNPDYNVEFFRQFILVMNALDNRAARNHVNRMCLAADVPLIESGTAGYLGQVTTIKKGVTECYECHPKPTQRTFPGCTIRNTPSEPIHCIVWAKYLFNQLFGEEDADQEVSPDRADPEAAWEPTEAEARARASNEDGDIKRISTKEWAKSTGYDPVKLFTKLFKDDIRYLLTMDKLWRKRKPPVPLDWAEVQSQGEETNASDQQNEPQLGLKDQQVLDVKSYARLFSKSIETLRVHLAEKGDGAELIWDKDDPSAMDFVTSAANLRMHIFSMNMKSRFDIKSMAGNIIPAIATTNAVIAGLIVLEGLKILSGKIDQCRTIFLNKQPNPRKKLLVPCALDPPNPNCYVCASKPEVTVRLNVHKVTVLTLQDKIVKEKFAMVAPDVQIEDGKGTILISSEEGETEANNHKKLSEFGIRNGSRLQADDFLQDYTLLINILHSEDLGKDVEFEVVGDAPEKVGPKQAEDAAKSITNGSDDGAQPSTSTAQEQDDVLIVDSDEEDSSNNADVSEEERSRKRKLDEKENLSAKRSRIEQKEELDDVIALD
Sequence of SUMO E1/E2 (P63279 whole entry): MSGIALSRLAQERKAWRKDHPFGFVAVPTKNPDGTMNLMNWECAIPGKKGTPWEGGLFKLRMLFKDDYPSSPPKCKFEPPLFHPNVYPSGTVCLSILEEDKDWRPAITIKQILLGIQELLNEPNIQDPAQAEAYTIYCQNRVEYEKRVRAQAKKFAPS

## Cc1cc(C)c2nc(NCc3ccccc3O)sc2c1
[1]
  AC50: 42.4 µM (active)

## COc1ccc2c(c1)C(NC(C)=O)C(=O)N2CCN1CCOCC1 (stereo not drawn)
[2]
  IC50: > 80 µM (inactive)
[3]
  IC50: 8.31 µM (active)
[4]
  IC50: 9.45 µM (active)

## Cc1occc1C(=O)/C(C#N)=C/c1ccc(O)c(Br)c1
[5]
  IC50: > 100 µM (inactive)
[6]
  IC50: 9.83 µM (active)
[7]
  IC50: 12.1 µM (active)
[8]
  AC50: 7.25 µM (active)

## Cc1ccc(Sc2nnc(Cc3ccccc3)c3ccccc23)cc1
[9]
  EC50: > 60 µM (not active)
[10]
  EC50: 1.95 µM (active)
[11]
  CC50: > 25 µM (active)

## CC1(C)CC(/C=C/c2ccccc2)=Nc2ccccc2N1
[1]
  AC50: 37.3 µM (active)

## CCN1CCc2c(C#N)c(N3CCCCC3)nc(NCc3ccccc3)c2C1
[12]
  EC50: 17.9 µM (active)
[13]
  EC50: 20.1 µM (active)
[11]
  CC50: > 25 µM (active)

## C/C(=C\C(=O)OCCCCCCCCC(=O)O)C[C@@H]1OC[C@H](C[C@@H]2O[C@H]2[C@@H](C)[C@H](C)O)[C@@H](O)[C@H]1O [MUPIROCIN]
[14]
  AC50: 4.99 µM (active)
[15]
  EC50: > 38 µM (not active)
[16]
  EC50: < 0.06 µM (active)
[17]
  EC50: > 150 µM (inactive)
[18]
  EC50: 0.423 µM (active)
[19]
  EC50: < 0.06 µM (active)

## COc1c(O)ccc(/C=C(\C#N)c2nc3ccccc3[nH]2)c1[N+](=O)[O-]
[20]
  IC50: 35.9 µM (active)
[21]
  IC50: 15.1 µM (active)
[8]
  AC50: 2.77 µM (active)
[22]
  IC50: 31.1 µM (active)
[23]
  IC50: 25.9 µM (active)

## COc1cc2c(cc1OC)-c1cc(Nc3ncn[nH]3)nc(=O)n1CC2
[2]
  IC50: > 80 µM (inactive)
[3]
  IC50: > 80 µM (inactive)
